Values of other authors in patent US20090005322A1, “Physiologically- Active Composition Based on Collagen” (priority 2004, published 2009).

Tested on: human peripheral polymorphonuclear leucocytes

Q: For `C[C@@H]1O[C@@H](O[C@@H]2[C@@H](O)[C@H](OCCc3ccc(O)c(O)c3)O[C@H](CO)[C@H]2OC(=O)/C=C/c2ccc(O)c(O)c2)[C@H](O)[C@H](O)[C@H]1O` [Acteoside, acteoside], which “formation of eicosatetraenoic acid derivatives (5-HET)” value is on record?
A: The value was “inhibits”.

Q: And the “formation of leucotriene B4” value?
A: Its value is “inhibits”.
